Patent US20260272960A1, “[…] COMPOUNDS, PREPARATION METHOD AND USE THEREOF” (HC SYNTHETIC PHARMACEUTICAL CO., LTD., priority 2022, published 2026)
≈ marks a conversion by molar mass, not a printed value. Like-named read-outs stand apart in the source and are kept apart here.

Experiments:
[1] = Solubility test in water, methanol and isopropanol; format: physicochemical
Protocol: The solubility in water, methanol, and isopropanol of the compounds of the present disclosure and the comparative compounds were measured separately.

[2] = Accelerated stability test; format: physicochemical; settings: 40° C.±2° C., relative humidity 75%+5%
Protocol: The compound of the present disclosure was placed at a temperature of 40° C.±2° C. and a relative humidity of 75%+5% for 6 months, and samples were taken to determine for the descriptions, related substances, and contents.

[3] = tested on: isolated ileal smooth muscle of guinea pigs; assay: Effect on muscle tone of isolated ileal smooth muscle of guinea pigs (no histamine added); set-up: species or system guinea pig; settings: 5 minutes after adding the drug, X ± s, n = 8
Protocol: The guinea pig was knocked unconscious with a wooden stick, and the abdomen was immediately dissected to separate the ileum about 15 cm in length. The contents of the intestinal segment were flushed with Tyrode's solution and placed in Tyrode's solution at a constant temperature of 37° C. for later use, and oxygen was supplied simultaneously. The experimental intestinal tract (1 cm in length) was cut and placed into 20 ml of Tyrode's solution at a constant temperature of 37° C. with a continuous oxygen supply. One end of the intestine was fixed on the ventilation hook and the other end was connected to the muscle tone transducer and led to the computer interface. The muscle tone value of the ileal smooth muscle was recorded with a BL system. The experiment was carried out after the intestinal segment contraction became stable. […] The operation was repeated 8 times. The antispasmodic percentage was calculated according to the following formula. [formula]

[4] = tested on: histamine-induced asthma in guinea pigs; assay: Antiasthmatic effect on histamine-induced asthma in guinea pigs (latency period); format: in vivo, guinea pig; settings: 1 mg/kg oral gavage, sixty minutes after administration; no asthma within 8 minutes counted as 8 minutes; X ± s, n = 5
Protocol: The guinea pigs were placed in a polymethyl methacrylate bell jar and a histamine hydrochloride solution was sprayed ultrasonically (0.8 mg/mL) for 40 seconds. The time point at which the guinea pigs developed asthma was recorded. The time of convulsion and fall was taken as the latency period. Guinea pigs with a latency period exceeding 180 seconds were not selected. […] The guinea pigs were administered by oral gavage at a dose of 2 mL/kg·bw. Sixty minutes after the administration, the guinea pigs were placed in bell jars, and histamine hydrochloride solution was sprayed under the same conditions as in the previous selection. The latency period for the onset of asthma was recorded. […] The results were processed statistically.

[5] = isopropanol, organic solvent or mixture, isopropanol, read-out: Solubility, Isopropanol
[6] = methanol, organic solvent or mixture, methanol, read-out: Solubility, Methanol
[7] = water, read-out: Solubility, Water

SMILES | solubility [1, 5] [mg/mL] | solubility [1, 6] [mg/mL] | further results
O=C1Cc2ccccc2C(=C2CCN(COP(=O)(O)O)CC2)c2ccsc21 [Compound III-1] | 24 (≈ 59.2 mM) | 35 (≈ 86.3 mM) | –
O=C1Cc2ccccc2C(=C2CCN(CCOP(=O)(O)O)CC2)c2ccsc21 [Compound III-2] | – | – | solubility ([1]; isopropanol, organic solvent or mixture, read-out: Solubility, Isopropanol): 24 mg/mL (≈ 57.2 mM)
O=C1Cc2ccccc2C(=C2CCN(CCCOP(=O)(O)O)CC2)c2ccsc21 [Compound III-3] | – | 35 (≈ 80.7 mM) | –
O=C1Cc2ccccc2C(=C2CCN(CCCCOP(=O)(O)O)CC2)c2ccsc21 [Compound III-4] | 24 (≈ 53.6 mM) | 35 (≈ 78.2 mM) | –
O=C1Cc2ccccc2C(=C2CCN(CCCOCOP(=O)(O)O)CC2)c2ccsc21 [Compound III-7] | 24 (≈ 51.8 mM) | 38 (≈ 82 mM) | –
O=C1Cc2ccccc2C(=C2CCN(CCCCCOCOP(=O)(O)O)CC2)c2ccsc21 [Compound III-9] | 24 (≈ 48.8 mM) | 38 (≈ 77.3 mM) | –
O=C1Cc2ccccc2C(=C2CCN(COP(=O)([O-])[O-])CC2)c2ccsc21.[Na+].[Na+] [Compound IV-1] | 1 | 35 | Content ([2]; Month 1): 99.7%; Content ([2]; Month 3): 99.6%; solubility [1, 7]: 488 mg/mL
O=C1Cc2ccccc2C(=C2CCN(CCOP(=O)([O-])[O-])CC2)c2ccsc21.[K+].[K+] [Compound IV-2] | – | – | Content ([2]; Month 1): 99.7%; Content ([2]; Month 2): 99.7%; Content ([2]; Month 6): 99.6%
O=C1Cc2ccccc2C(=C2CCN(CCCOP(=O)(O)O)CC2)c2ccsc21 [Compound IV-3] | – | 38 (≈ 87.7 mM) | solubility [1, 7]: 404 mg/mL (≈ 932 mM)
O=C1Cc2ccccc2C(=C2CCN(CCCCOP(=O)([O-])[O-])CC2)c2ccsc21.[Na+].[Na+] [Compound IV-4] | 1 | 35 | Content ([2]; Month 1): 99.7%; Content ([2]; Month 3): 99.6%; solubility [1, 7]: 476 mg/mL
O=C1Cc2ccccc2C(=C2CCN(CCCCCOP(=O)([O-])[O-])CC2)c2ccsc21.[Na+].[Na+] [Compound IV-5] | 1 | – | solubility [1, 7]: 478 mg/mL
O=C1Cc2ccccc2C(=C2CCN(CCOCOP(=O)(O)O)CC2)c2ccsc21 [Compound IV-6] | – | – | Content ([2]; Month 3): 99.6%
O=C1Cc2ccccc2C(=C2CCN(CCCCOCOP(=O)([O-])[O-])CC2)c2ccsc21.[Na+].[Na+] [Compound IV-8] | – | – | Content ([2]; Month 1): 99.7%; Content ([2]; Month 2): 99.7%; Content ([2]; Month 6): 99.6%
O=C1Cc2ccccc2C(=C2CCN(CCCCCOCOP(=O)([O-])[O-])CC2)c2ccsc21.[Na+].[Na+] [Compound IV-9] | 2 | 35 | solubility [1, 7]: 473 mg/mL
OCCCCN1CCC(=C2c3ccc(Cl)cc3CCc3cccnc32)CC1 [Hydroxybutyl desloratadine, hydroxybutyl desloratadine, reference compound] | 28 (≈ 73.1 mM) | 22 (≈ 57.5 mM) | –
OCCN1CCC(=C2c3ccc(Cl)cc3CCc3cccnc32)CC1 [Hydroxyethyl desloratadine, hydroxyethyl desloratadine, reference compound] | 21 (≈ 59.2 mM) | 27 (≈ 76.1 mM) | –
OCCCCCCN1CCC(=C2c3ccc(Cl)cc3CCc3cccnc32)CC1 [Hydroxyhexyl desloratadine, hydroxyhexyl desloratadine, reference compound] | 32 (≈ 77.9 mM) | 15 (≈ 36.5 mM) | –
OCCCCCN1CCC(=C2c3ccc(Cl)cc3CCc3cccnc32)CC1 [Hydroxypentyl desloratadine, hydroxypentyl desloratadine, reference compound] | 29 (≈ 73.1 mM) | 19 (≈ 47.9 mM) | –
OCCCN1CCC(=C2c3ccc(Cl)cc3CCc3cccnc32)CC1 [Hydroxypropyl desloratadine, hydroxypropyl desloratadine, reference compound] | 26 (≈ 70.5 mM) | 24 (≈ 65.1 mM) | –
CN1CCC(=C2c3ccccc3CC(=O)c3sccc32)CC1 [Ketotifen, ketotifen] | 20 (≈ 64.6 mM) | 30 (≈ 97 mM) | Smooth muscle tone (g) After administration [3]: 1.30 ± 0.30 g; Antispasmodic percentage (%) ([3]; no histamine): 23.53 ± 10.10%; Post-administration latency period [4]: 263.11 ± 54.90 s
Cc1cncc(CN2CCC(=C3c4ccccc4CC(=O)c4sccc43)CC2)c1 [Rupatifen, rupatifen, reference compound] | 20 (≈ 49.9 mM) | 30 (≈ 74.9 mM) | –
